The results in this text go back to ChEMBL document CHEMBL3621173, “Evaluation of functional groups as acetyl-lysine mimetics for BET bromodomain inhibition” (Medchemcomm, 2014).

Calls of active or inactive are those of the source. The rule behind the calls is not given here.

Series [1] concerns the target T1, Bromodomain-containing protein 4 (Homo sapiens, UniProt O60885). Nature of the series: Inhibition of BRD4 (D1) (unknown origin) at 5 uM incubated for 30 mins using histone H4 peptide (1-21) K5/8/12/16Ac-biotin by alpha screen assay. On the technique in general: Bead proximity is the source of the signal in Alpha formats.
Series [2] has as its target T2, Bromodomain-containing protein 3 (Homo sapiens, UniProt Q15059). Nature of the series: Inhibition of BRD3 (D1) (unknown origin) at 5 uM incubated for 30 mins using histone H4 peptide (1-21) K5/8/12/16Ac-biotin by alpha screen assay.
Target sequence in this assay (Q15059 2-726 limits assumed): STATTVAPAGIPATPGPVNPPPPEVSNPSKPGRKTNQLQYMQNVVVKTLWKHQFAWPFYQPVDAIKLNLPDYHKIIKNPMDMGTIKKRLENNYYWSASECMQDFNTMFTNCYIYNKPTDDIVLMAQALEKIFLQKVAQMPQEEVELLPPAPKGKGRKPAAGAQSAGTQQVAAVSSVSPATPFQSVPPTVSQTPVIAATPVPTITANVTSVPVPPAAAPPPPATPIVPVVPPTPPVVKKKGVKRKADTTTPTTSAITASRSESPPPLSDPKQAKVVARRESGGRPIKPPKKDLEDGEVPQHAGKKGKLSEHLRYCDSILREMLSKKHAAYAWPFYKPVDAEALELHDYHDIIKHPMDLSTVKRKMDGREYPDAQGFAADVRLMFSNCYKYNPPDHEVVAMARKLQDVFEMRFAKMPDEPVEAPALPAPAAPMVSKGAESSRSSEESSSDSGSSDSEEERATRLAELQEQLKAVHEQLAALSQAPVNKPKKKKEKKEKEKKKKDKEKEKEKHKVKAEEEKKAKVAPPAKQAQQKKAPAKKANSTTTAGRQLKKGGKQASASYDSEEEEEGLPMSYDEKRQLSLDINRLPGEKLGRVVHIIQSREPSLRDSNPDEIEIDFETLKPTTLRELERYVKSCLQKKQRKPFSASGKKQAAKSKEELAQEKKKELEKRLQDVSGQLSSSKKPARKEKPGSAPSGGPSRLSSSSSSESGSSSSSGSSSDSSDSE
Series [3] addresses Bromodomain-containing protein 2 (Homo sapiens) (UniProt P25440). Nature of the series: Inhibition of BRD2 (D1) (unknown origin) at 5 uM incubated for 30 mins using histone H4 peptide (1-21) K5/8/12/16Ac-biotin by alpha screen assay.
Series [4] has as its target T2, Bromodomain-containing protein 3. Kind of series: Inhibition of BRD3 (D1) (unknown origin) incubated for 30 mins using histone H4 peptide (1-21) K5/8/12/16Ac-biotin by alpha screen assay.
Target sequence in this assay (Q15059 whole entry): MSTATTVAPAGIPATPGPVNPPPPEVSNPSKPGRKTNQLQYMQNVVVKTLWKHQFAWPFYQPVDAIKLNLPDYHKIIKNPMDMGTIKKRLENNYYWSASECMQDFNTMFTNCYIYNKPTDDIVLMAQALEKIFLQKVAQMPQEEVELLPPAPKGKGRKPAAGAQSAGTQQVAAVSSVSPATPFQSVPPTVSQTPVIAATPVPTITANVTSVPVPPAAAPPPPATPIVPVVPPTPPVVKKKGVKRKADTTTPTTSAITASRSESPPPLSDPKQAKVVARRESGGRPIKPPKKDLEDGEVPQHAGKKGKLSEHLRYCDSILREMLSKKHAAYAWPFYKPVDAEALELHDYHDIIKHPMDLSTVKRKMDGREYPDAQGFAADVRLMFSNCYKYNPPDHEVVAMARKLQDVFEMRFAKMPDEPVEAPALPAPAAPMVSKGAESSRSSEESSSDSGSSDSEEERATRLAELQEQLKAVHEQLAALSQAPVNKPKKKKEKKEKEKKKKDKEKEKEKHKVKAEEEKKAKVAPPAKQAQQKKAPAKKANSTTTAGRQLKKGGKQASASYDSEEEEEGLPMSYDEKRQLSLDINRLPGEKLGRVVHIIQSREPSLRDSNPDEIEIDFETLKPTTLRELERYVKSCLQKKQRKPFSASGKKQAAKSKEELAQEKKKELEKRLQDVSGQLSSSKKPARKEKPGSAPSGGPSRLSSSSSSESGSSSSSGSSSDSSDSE
For series [5], the target named is T1, Bromodomain-containing protein 4. Kind of series: Inhibition of BRD4 (D1) (unknown origin) incubated for 30 mins using histone H4 peptide (1-21) K5/8/12/16Ac-biotin by alpha screen assay.
Series [6] can be described thus: Degradation half-life in rat liver microsomes. Format: ADME. On the technique in general: Liver microsomes are a subcellular fraction often used to study metabolism.
Series [7] can be described thus: Degradation half-life in human liver microsomes. Format: ADME.
Series [8] in a line: Degradation half-life in mouse liver microsomes. The format is ADME.
The nature of series [9]: Intrinsic clearance in human liver microsomes. The format is ADME. As to conditions: read-out: CLH.
A short description of series [10]: Intrinsic clearance in rat liver microsomes. Format: ADME. As to conditions: read-out: CLH.
A short description of series [11]: Intrinsic clearance in mouse liver microsomes. The note with it: read-out: CLH. Format: ADME.

By IC50 is commonly meant the concentration that gives 50% inhibition. In general, half-life refers to the time in which the quantity being followed falls by half. Lower therefore signals fast loss.

Bromodomain-containing protein 2 (Homo sapiens), sequence (P25440 whole entry, looked up): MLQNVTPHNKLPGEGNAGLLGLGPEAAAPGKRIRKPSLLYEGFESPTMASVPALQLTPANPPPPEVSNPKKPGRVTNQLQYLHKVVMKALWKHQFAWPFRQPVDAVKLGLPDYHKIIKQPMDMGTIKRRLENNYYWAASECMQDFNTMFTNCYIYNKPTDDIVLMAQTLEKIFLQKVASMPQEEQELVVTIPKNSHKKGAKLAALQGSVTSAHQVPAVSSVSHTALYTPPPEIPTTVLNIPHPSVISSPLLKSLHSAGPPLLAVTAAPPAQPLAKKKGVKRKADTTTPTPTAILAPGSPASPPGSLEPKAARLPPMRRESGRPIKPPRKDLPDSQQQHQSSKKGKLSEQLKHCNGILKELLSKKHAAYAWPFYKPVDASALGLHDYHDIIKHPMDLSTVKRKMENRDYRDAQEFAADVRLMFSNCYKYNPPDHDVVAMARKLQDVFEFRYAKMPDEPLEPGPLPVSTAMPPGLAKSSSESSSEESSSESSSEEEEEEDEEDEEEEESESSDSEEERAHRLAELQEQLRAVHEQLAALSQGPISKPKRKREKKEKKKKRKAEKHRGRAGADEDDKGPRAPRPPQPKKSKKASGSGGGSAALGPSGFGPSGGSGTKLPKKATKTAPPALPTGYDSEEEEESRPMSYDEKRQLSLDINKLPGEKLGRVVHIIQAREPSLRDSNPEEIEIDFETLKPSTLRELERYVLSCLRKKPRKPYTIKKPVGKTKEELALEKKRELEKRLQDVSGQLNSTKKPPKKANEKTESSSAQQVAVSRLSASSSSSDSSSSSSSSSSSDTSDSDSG

For `COc1ccc(-c2ccc(N)nc2C)cc1S(=O)(=O)NC1CCCC1`, the inhibition result in series [1], in [2] and in series [3] was “Active” each time.
For `COc1ccc(-c2cnn(C)n2)cc1S(=O)(=O)NC1CCCC1`, the inhibition entry in series [1] is “Active”. Besides, the IC50 in series [4] worked out at 10 µM; in series [5] it was 4 µM.
Turning to `COc1ccc(-c2cc[n+]([O-])cc2)cc1S(=O)(=O)NC1CCCC1`, the inhibition entry in series [1], in series [2] and in series [3] was “inactive” each time.
With `COc1ccc(-c2ccc(N)cc2C)cc1S(=O)(=O)NC1CCCC1`, the inhibition entry in [1], in [2] and in series [3] was “inactive” each time.
For `COc1ccc(-c2ccnn2C)cc1S(=O)(=O)NC1CCCC1`, the inhibition entry in series [1], in series [2] and in [3] was “Active” throughout. Further, the values for the IC50 in [4] and in [5] were 1.71 µM and 10.1 µM, respectively.
As to `COc1ccc(-c2ccc(N)nc2)cc1S(=O)(=O)NC1CCCC1`, the inhibition entry in series [1], in series [2] and in series [3] was “inactive” each time.
For the compound `Cc1ccc(-n2c(C)nnc2C)cc1S(=O)(=O)NC1CCCC1`, the inhibition entry in series [1], in series [2] and in [3] was “inactive” in each case. Besides, the IC50 in series [4] and in [5] was not below 10 µM each time. For the same compound, the half-life in series [6] is 1.78 h; in [7] it was 2.88 h; in series [8] it was 1.42 h. In addition, the microsomal CLint in [9] is 10 µL/min/mg; in [10], 16 µL/min/mg; in series [11], 20 µL/min/mg.
Take `COc1ccc(-c2c(C)nn(C)c2C)cc1S(=O)(=O)NC1CCCC1`: the inhibition result in series [1], in [2] and in series [3] was “inactive” in each case.
Consider `COc1ccc(-c2cn[nH]c2)cc1S(=O)(=O)NC1CCCC1`, for which the inhibition result in series [1], in series [2] and in [3] was “inactive” in each case.
Regarding `Cc1nc(-c2ccc(C)c(S(=O)(=O)NC3CCCC3)c2)no1`, the inhibition entry in [1], in [2] and in series [3] was “inactive” throughout.
Consider `COc1ccc(-c2cccc(NC(C)=O)c2)cc1S(=O)(=O)NC1CCCC1`, for which the inhibition entry in series [1], in series [2] and in [3] was “inactive” throughout.
On to `COc1ccc(-c2cccc(N)c2C)cc1S(=O)(=O)NC1CCCC1`, for which the inhibition result in series [1], in [2] and in series [3] was “inactive” each time.
Consider `Cc1ccc(-c2nnnn2C)cc1S(=O)(=O)NC1CCCC1`, for which the inhibition result in [1], in series [2] and in [3] was “inactive” throughout.
For `COc1ccc(-c2cc(N)ccc2C)cc1S(=O)(=O)NC1CCCC1`, the inhibition result in series [1], in [2] and in [3] was “inactive” each time.
Consider `COc1ccc(-c2ccsc2C)cc1S(=O)(=O)NC1CCCC1`, for which the inhibition entry in series [1], in series [2] and in series [3] was “inactive” in each case.
For the compound `COc1ccc(-c2ccc(NC(C)=O)cc2)cc1S(=O)(=O)NC1CCCC1`, the inhibition entry in series [1], in series [2] and in series [3] was “inactive” throughout.
`COc1ccc(-c2ccc(N)[n+]([O-])c2C)cc1S(=O)(=O)NC1CCCC1`: the inhibition result in series [1] and in series [2] was “Active” throughout.
Take `COc1ccc(-c2ccsc2)cc1S(=O)(=O)NC1CCCC1`: the inhibition result in series [1], in series [2] and in [3] was “inactive” each time.
As to `Cc1ccc(-c2c(C)noc2C)cc1S(=O)(=O)NC1CCCC1`, the inhibition entry in series [1], in series [2] and in [3] was “Active” throughout. Further, the figures for the half-life in [6], in series [7] and in [8] were 0.0333 h, 0.117 h and 0.0667 h, respectively. Further, the microsomal CLint in series [9] was 246 µL/min/mg; in series [10], 711 µL/min/mg; in [11] it was 461 µL/min/mg.
Consider `COc1ccc(-c2ccccc2NS(C)(=O)=O)cc1S(=O)(=O)NC1CCCC1`, for which the inhibition entry in series [1], in series [2] and in series [3] was “inactive” throughout.
For the compound `COc1ccc(-c2ccncc2)cc1S(=O)(=O)NC1CCCC1`, the inhibition entry in [1], in series [2] and in series [3] was “inactive” in each case.
In the case of `COc1cc2c(cc1-c1c(C)noc1C)ncc1[nH]c(=O)n([C@H](C)c3ccccn3)c12`, the figures for the half-life in series [6], in [7] and in [8] were 3.45 h, 3.9 h and more than 4.12 h, respectively. For the same compound, the results for the microsomal CLint in [9], in series [10] and in series [11] were 7 µL/min/mg, 8 µL/min/mg and less than 7 µL/min/mg, respectively.
In the case of `COc1ccc(-c2cccnc2)cc1S(=O)(=O)NC1CCCC1`, the inhibition result in series [1], in series [2] and in series [3] was “inactive” throughout.
`COc1ccc(-c2c(C)noc2C)cc1S(=O)(=O)NC1CCCC1`: the inhibition result in [1], in [2] and in series [3] was “Active” in each case. For the same compound, the IC50 in [4] turned out to be 0.2 µM; in [5], 1.2 µM.
On to `COc1ccc(-c2cnc(N)nc2)cc1S(=O)(=O)NC1CCCC1`, for which the inhibition entry in series [1], in [2] and in [3] was “inactive” in each case.
`Cc1sc2c(c1C)C(c1ccc(Cl)cc1)=N[C@@H](CC(=O)OC(C)(C)C)c1nnc(C)n1-2` came in with a half-life in [8] of 0.117 h. Besides, the microsomal CLint in [9] is 136 µL/min/mg; in series [10] it was 129 µL/min/mg; in [11], 166 µL/min/mg.
As to `COc1ccc(-c2cn(C)nn2)cc1S(=O)(=O)NC1CCCC1`, the inhibition entry in series [1], in [2] and in [3] was “inactive” in each case.
Turning to `CC(=O)NCc1ccc(C)c(S(=O)(=O)NC2CCCC2)c1`, the inhibition entry in series [1], in series [2] and in [3] was “inactive” in each case.
With `CC(=O)Nc1ccc(C)c(S(=O)(=O)NC2CCCC2)c1`, the inhibition result in series [1], in series [2] and in series [3] was “inactive” throughout.
Consider `COc1ccc(-c2c(C)n[nH]c2C)cc1S(=O)(=O)NC1CCCC1`, for which the inhibition entry in [1], in series [2] and in series [3] was “Active” throughout. Further, the IC50 came to 1.32 µM in series [4] and 2.89 µM in [5].
`Cc1ccc(NS(C)(=O)=O)cc1S(=O)(=O)NC1CCCC1`: the inhibition entry in [1], in series [2] and in series [3] was “inactive” in each case.
As to `Cc1ccc(-n2cnnc2C)cc1S(=O)(=O)NC1CCCC1`, the inhibition result in [1], in series [2] and in [3] was “inactive” throughout. For the same compound, the IC50 in [4] and in series [5] was not below 10 µM in each case.
Take `Cc1ccc(-c2nnn(C)n2)cc1S(=O)(=O)NC1CCCC1`: the inhibition result in series [1], in series [2] and in series [3] was “inactive” throughout.
